According to ChEMBL document CHEMBL1130089 (J Med Chem, 1997):
The source made the active and inactive calls. No cut-off for these calls is given here.

Legend:
Estrogen receptor [1] = target: T1, Estrogen receptor (Homo sapiens, UniProt Q92731+P03372); test: Compound concentration required to induce transcriptional activation in MVLN cells equal to 50% of 0.1 nM estradiol response; assay type: functional, cell-based
Estrogen receptor [2] = target: T1, Estrogen receptor
Estrogen receptor [3] = target: T1, Estrogen receptor; remark: listed apart in the source
Description: Relative affinity constant for cytosolic estrogen receptor

Estrogen receptor [4] = target: T1, Estrogen receptor; test: Irreversible inhibition of [3H]estradiol binding to estrogen receptor; (-) indicates decrease in estradiol binding sites inactivated by the compound; assay type: protein assay
Estrogen receptor [5] = target: T1, Estrogen receptor; test: Agonist transcriptional activation in MVLN cells relative to 0.1 nM estradiol; assay type: functional, cell-based
Estrogen receptor [6] = target: T1, Estrogen receptor; test: Compound concentration required to induce transcriptional activation in MVLN cells comparable to 50% of 0.1 nM estradiol response; assay type: functional, cell-based

Row | Compound | IC50 (Estrogen receptor [1]) | Covalent binding (Estrogen receptor [2]) | RAC (Estrogen receptor [3]) | Covalent binding (Estrogen receptor [4]) | Activity (Estrogen receptor [5]) | EC50 (Estrogen receptor [6])
1 | Cc1ccc(S(=O)(=O)OCCCCCCCCCC[C@H]2C[C@]3(C)[C@@H](O)CC[C@H]3[C@@H]3CCc4cc(O)ccc4[C@@H]23)cc1 | 4 nM | < 10 | 2.59 |  |  | 
2 | C[C@]12C[C@H](CCCCNC(=O)CBr)[C@@H]3c4ccc(O)cc4CC[C@H]3[C@@H]1CC[C@@H]2O | 320 nM |  | 1.64 | inactive |  | 
3 | C[C@]12C[C@H](CCCCBr)[C@@H]3c4ccc(O)cc4CC[C@H]3[C@@H]1CC[C@@H]2O | 3 nM |  | 11 | inactive |  | 
4 | C[C@]12C[C@H](CCCCOS(C)(=O)=O)[C@@H]3c4ccc(O)cc4CC[C@H]3[C@@H]1CC[C@@H]2O | 6 nM |  | 36.8 | inactive |  | 
5 | C=CCC[C@H]1C[C@]2(C)[C@@H](O)CC[C@H]2[C@@H]2CCc3cc(O)ccc3[C@@H]12 |  |  | 38.6 |  | 80% | < 10 nM
6 | C[C@]12C[C@H](CCNC(=O)CBr)[C@@H]3c4ccc(O)cc4CC[C@H]3[C@@H]1CC[C@@H]2O |  |  | 0.38 | inactive | 90% | 110 nM
7 | C[C@]12C[C@H](CCOS(C)(=O)=O)[C@@H]3c4ccc(O)cc4CC[C@H]3[C@@H]1CC[C@@H]2O |  |  | 8.15 | inactive | 95% | 6 nM
